Results on one compound are retold here after publication PMC11831592, “Repurposing Linezolid in Conjunction with Histone Deacetylase Inhibitor Access in the Realm of Glioblastoma Therapies” (Journal of Medicinal Chemistry, 2025).

In one assay the test system is Primary Mouse Astrocyte. Put plainly: CCK8 assay, primary culture astrocytes. In kind it is cell-based. As for the experimental part:
(§1) The human glioblastoma cell lines U87MG (HTB-14), T98G (CRL-1690), and A172 (CRL-1620) were provided by the American Type Culture Collection (Manassas, VA, USA). The patient-derived cell line PT#3 was purified under the approval of the Institutional Review Board of Taipei Medical University (TMU) (No. 201006011). The murine astrocytoma cell line CT-2A (SCC194) was purchased from Merch Millipore (MA, USA). TMZ-resistant cell lines were established as described previously.[40] All cell lines were cultured in Dulbecco’s modified Eagle’s medium basal medium (Cat# 10-013-CM, CORNING, MA, USA), supplemented with 10% fetal bovine serum (Cat# 12676029, Thermo Fisher Scientific, MA, USA), 100 units/mL penicillin, and 100 μg/mL streptomycin (Cat# 15140122, Thermo Fisher Scientific) at 37 °C in the environment of 95% air and 5% carbon dioxide and maintained resistant characteristic with […] of TMZ (Cat# HY-17364, MedChemExpress, NJ, USA). Primary cultured astrocytes and neurons were derived from E17 embryonic mice. […]
(§2) Cell viability and drug cytotoxicity were determined by a CCK-8 kit (Cell Counting Kit-8, CK04-13, MD, USA) (CCK8, C0005, Target Molecule Corp., MA, USA) reagent. […] Finally, the OD was 450 nm absorbance and calculated for cell viability.

The test system of assay [1] is CT-2A mouse astrocyte cell line. Description: CCK8 cell proliferation assay, CT-2A. As to conditions: CCK8, 72 h. The format is cell-based. Here is the method:
(§3) Cell viability and drug cytotoxicity were determined by a CCK-8 kit (Cell Counting Kit-8, CK04-13, MD, USA) (CCK8, C0005, Target Molecule Corp., MA, USA) reagent. Cells were seeded 2 × 10^3 per well in the 96-well plate for 24 h, followed by treating at different concentrations of compounds for 72 h. Before the experiment, CCK8 was 10-fold diluted with the culture medium and then incubated with cells for 30 min. Finally, the OD was 450 nm absorbance and calculated for cell viability.

In the next assay the test system is PT#3-R. Description: CCK8 cell proliferation assay, PT#3-R. In kind it is cell-based. Conditions: Homo sapiens, CCK8, 72 h. As for the experimental part:
as §3

In assay [2] the test system is GBM, TMZ-resistant GBM, and patient-derived TMZ-resistant GBM cells. Description: CCK8 assay, GBM cell panel (range given). As to conditions: read-out: IC50 values, range over GBM cells. In kind it is cell-based. Here is the method:
as §3

The subject of another assay is Primary Mouse Neuron. Description: CCK8 assay, primary culture neurons. The format is cell-based. Here is the method: as §1, §2
The test system of assay [3] is DNA HR repair in U87MG cells. Put plainly: Homologous recombination repair assay. In kind it is cell-based, human. As to conditions: increasing drug concentrations. Here is the method: For the DNA, HR repair assay continued to use our previous study.[30] U87MG cells were cotransfected at a 2:1 ratio using the […] reporter and DsRed-Monomer plasmids. Cells were harvested 2 days after transfection and subjected to flow cytometry analysis by a Guava EasyCyte System. Only DsRed-positive cells were analyzed for HR and NHEJ efficiencies to circumvent possible differences in transfection efficiencies. Data were analyzed to reveal the percentage of GFP-positive cells relative to those of DsRed-positive cells. Data were set to 1% of the background level of GFP-positive cells in every internal control.

For the next assay, the target named is T1, HDAC6 (Homo sapiens, UniProt Q9UBN7).
T1 construct: purchased Reaction Biology Corporation, Malvern, PA (contract assay service)
T1 sequence (Q9UBN7 1-1215): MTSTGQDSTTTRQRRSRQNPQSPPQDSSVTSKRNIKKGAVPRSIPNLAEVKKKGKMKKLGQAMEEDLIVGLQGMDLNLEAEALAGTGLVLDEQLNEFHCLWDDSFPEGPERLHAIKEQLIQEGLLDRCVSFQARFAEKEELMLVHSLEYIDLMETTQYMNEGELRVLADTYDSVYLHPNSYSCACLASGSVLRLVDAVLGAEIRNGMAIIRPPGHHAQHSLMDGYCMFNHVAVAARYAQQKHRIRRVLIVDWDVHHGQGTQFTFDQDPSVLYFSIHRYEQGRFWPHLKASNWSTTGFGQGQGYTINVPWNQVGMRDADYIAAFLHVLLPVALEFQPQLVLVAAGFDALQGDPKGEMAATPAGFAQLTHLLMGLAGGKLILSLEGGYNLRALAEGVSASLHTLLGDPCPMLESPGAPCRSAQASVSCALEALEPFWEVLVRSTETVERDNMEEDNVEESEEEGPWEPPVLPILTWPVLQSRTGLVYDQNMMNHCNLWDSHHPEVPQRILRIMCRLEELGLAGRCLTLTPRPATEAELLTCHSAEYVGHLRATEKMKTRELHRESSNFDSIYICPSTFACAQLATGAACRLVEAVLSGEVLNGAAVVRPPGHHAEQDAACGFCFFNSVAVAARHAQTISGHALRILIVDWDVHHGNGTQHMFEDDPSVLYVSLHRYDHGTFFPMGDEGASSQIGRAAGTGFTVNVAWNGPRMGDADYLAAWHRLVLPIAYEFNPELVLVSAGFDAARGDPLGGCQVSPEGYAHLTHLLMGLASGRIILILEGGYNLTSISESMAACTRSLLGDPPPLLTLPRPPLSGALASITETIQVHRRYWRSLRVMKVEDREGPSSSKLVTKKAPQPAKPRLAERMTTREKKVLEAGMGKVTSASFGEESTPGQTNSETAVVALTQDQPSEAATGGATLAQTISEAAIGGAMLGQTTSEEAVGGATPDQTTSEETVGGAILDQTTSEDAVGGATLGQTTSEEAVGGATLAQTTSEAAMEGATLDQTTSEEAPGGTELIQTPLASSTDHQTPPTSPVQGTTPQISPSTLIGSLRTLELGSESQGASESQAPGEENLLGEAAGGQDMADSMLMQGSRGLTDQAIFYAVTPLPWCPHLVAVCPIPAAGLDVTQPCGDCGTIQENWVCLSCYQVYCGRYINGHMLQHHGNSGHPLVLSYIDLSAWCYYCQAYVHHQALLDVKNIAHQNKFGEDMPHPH
Put plainly: HDAC enzyme inhibition assay, HDAC6. Conditions: 10-dose, 3-fold serial dilution starting at 10 μM. The format is biochemical. Here is the method: Enzyme inhibition assays were performed by the Reaction Biology Corporation, Malvern, PA (http://www.reactionbiology.com).

In assay [4] the test system is phospho-ATM, CtIP, RPA32, and RAD51 in PT#3-R GBM cells. Description: Western blot of DNA repair proteins. The format is cell-based, human. Conditions: 72 h. Here is the method:
The experimental procedure was performed as described in our previous study.[41] On the day prior to the experiment, […] cells were seeded into each well of a 6-well plate. The following day, the cells were washed twice with PBS and treated with 10 μM compound 1. […] The antibody models and dilution ratios used are detailed in Table S1. Protein image collection and quantification were done by the ChemiDoc Touch Imaging System (Cat. No. 12676029, Bio-Rad Laboratories, Inc., CA, USA).

With `O=C(/C=C/c1ccc(CNC[C@H]2CN(c3ccc(N4CCOCC4)c(F)c3)C(=O)O2)cc1)NO` [compound 1, (S,E)-3-(4-((((3-(3-Fluoro-4-morpholinophenyl)-2-oxooxazolidin-5-yl)methyl)ami-no)methyl)phenyl)-N-hydroxyacrylamide], the IC50 is 143 ± 7.9 µM with Primary Mouse Astrocyte; 5.88 ± 0.63 µM in assay [1]; 11.1 ± 0.57 µM in the assay on PT#3-R; 10.3 to 30.6 µM in assay [2]; 65.9 ± 4 µM in the assay on Primary Mouse Neuron; 106 nM against HDAC6. Also, the “DNA HR repair capability” value in assay [3] is reported as “substantial decrease in DNA HR repair capability”. Further, in assay [4], the “CtIP, RPA32 and RAD51 protein expression” value is “significant suppression”. The “phosphorylation of ATM” value in assay [4] is given as “significant increase in the phosphorylation”.
